Reference: patent publication US20240209001A1, “HETEROCYCLIC DERIVATIVES AS JANUS KINASE INHIBITORS” (CHIESI FARMACEUTICI S.P. A., priority 2021, published 2024)

Legend:
JAK 2 = JAK 2 (Homo sapiens (Human), UniProt O60674); experiment: Biochemical potency on JAK2, TR-FRET LANCE Ultra kinase assay (compounds 1-92); details: ATP at Km, read-out: JAK2 inhibitory activity (pIC50 class) (converted)
Method: (§1) Biochemical Potency on JAK1, JAK2, JAK3 and Tyk2 Assay Principle The objective of this study was to assess the capability of compounds to inhibit all 4 JAK isoforms activity in a cell-free environment. Assay for JAK 1, JAK 2, JAK 3 and TYK2 were performed by Time-resolved fluorescence resonance energy transfer (TR-FRET) technology. It consists in the interaction of two labelled binding partners detected by the energy transfer from an excited donor to an acceptor dye and measurement of light emission by the acceptor dye. LANCE Ultra kinase assay was used. In presence of JAK 1, JAK 2, JAK 3 and TYK2 kinases and ATP (corresponding to Km), the ULight peptide substrate (LANCE Ulight-JAK-1 ([…]) Peptide, Perkin Elmer, TRF0121) is phosphorylated. It is then captured by Eu-anti-phospho-substrate antibody (LANCE Eu-W1024 Anti-phosphotyrosine (PT66), Perkin Elmer, AD0069), which bring the Eu-chelate donor and ULight acceptor dyes into close proximity. Upon excitation at 320 nm, the Eu-chelate transfers its energy to the ULight dye, resulting in a fluorescent light emission at 665 nm. Compound Testing Serial dilutions of compounds in pure DMSO are prepared from 10 mM DMSO stock solutions. Compounds were tested in 384-well plate for 11 consecutive 5-fold dilutions starting from 20 μM highest concentration (20 μM-[…]). 200 nL of compound were transferred from mother plate to test plate by using Mosquito (TTP labtech). Assay was performed in 384-well Perkin Elmer test plate in 20 μL assay volume (kinase reaction) and 40 μL total volume (stopping reagent and antibody detection reagents). In 10 μL of substrate solution (peptide+ATP) 30/50/20/10 nM of peptide and 20/0.7/0.2/12 μM of ATP were added for JAK 1, JAK 2, JAK 3 and TYK2 respectively. 10 μL of enzyme solution was added to kinase reaction at these concentrations: 0.15/0.083/0.025/0.144 ng/μL of JAK 1, JAK 2, JAK 3 and TYK2 respectively. After shaking and 1.5 h of incubation at r.t., 20 μL of Stop (10 μL EDTA) and Detection mixture (10 μL Europium-anti-phospho antibody, final: 0.5 nM) were added. Reading was performed after 1 h of incubation on a EnVision 2104 reader (Perkin Elmer). Calculation of IC50 data, curves and QC analysis was performed by using Excel tool and GraphPadPrism software, v9. Briefly, individual concentration-effect curves are generated by plotting the logarithm of the tested concentration of tested compounds (X) vs. corresponding percent inhibition values (Y) using least squares (ordinary) fit. Best fit IC50 values are calculated using Log(inhibitor) vs. normalized response-Variable slope equation, where Y=100/(1+10^((Log IC50-X)*HillSlope)). QC criteria parameters (Z', S:B, R2, HillSlope) were checked for every IC50 curve. Calculation of IC50 data, curves and QC analysis were made using Excel tools and GraphPadPrism software. QC criteria parameters: Z'≥0.5, Hill Slope range 0.5 to 5, S:B>2.

JAK 3 = JAK 3 (Homo sapiens (Human), UniProt P52333); experiment: Biochemical potency on JAK3, TR-FRET LANCE Ultra kinase assay (compounds 1-92); details: ATP at Km, read-out: JAK3 inhibitory activity (pIC50 class) (converted)
Method: as §1

JAK 1 = JAK 1 (Homo sapiens (Human), UniProt P23458); experiment: Biochemical potency on JAK1, TR-FRET LANCE Ultra kinase assay (compounds 1-92); details: ATP at Km, read-out: JAK1 inhibitory activity (pIC50 class) (converted)
Method: as §1

TYK2 = TYK2 (Homo sapiens (Human), UniProt P29597); experiment: Biochemical potency on Tyk2, TR-FRET LANCE Ultra kinase assay (compounds 1-92); details: ATP at Km, read-out: Tyk2 inhibitory activity (pIC50 class) (converted)
Method: as §1

JAK 3, sequence (P52333 whole entry): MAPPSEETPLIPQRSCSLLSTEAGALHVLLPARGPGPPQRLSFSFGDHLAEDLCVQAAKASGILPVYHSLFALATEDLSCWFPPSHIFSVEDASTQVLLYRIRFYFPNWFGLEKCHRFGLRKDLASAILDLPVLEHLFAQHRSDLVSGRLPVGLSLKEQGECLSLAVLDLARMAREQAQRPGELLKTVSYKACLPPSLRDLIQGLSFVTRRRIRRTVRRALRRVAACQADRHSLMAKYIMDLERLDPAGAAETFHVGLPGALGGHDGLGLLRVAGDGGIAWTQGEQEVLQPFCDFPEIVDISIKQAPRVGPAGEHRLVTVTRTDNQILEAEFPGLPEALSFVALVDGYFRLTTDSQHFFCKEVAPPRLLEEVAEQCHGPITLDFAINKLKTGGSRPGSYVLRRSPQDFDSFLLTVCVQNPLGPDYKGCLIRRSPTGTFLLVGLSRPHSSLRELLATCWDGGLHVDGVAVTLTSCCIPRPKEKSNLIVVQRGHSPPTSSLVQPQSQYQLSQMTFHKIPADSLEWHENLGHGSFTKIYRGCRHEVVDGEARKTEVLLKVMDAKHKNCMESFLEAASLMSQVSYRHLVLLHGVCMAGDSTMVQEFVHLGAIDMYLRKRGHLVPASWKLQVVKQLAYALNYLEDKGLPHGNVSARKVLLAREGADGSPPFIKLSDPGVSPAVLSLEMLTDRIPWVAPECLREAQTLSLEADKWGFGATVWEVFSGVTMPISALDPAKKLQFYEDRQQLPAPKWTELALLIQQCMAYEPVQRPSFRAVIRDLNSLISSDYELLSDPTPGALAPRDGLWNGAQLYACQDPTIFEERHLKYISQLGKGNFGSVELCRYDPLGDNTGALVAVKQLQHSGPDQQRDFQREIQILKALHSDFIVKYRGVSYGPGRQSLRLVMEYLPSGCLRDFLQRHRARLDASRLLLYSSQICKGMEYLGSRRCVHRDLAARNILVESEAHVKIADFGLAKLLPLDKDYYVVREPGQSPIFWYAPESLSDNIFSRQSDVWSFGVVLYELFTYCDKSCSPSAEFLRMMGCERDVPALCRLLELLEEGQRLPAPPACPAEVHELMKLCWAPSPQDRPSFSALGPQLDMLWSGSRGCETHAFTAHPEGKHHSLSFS
TYK2, sequence (P29597 whole entry): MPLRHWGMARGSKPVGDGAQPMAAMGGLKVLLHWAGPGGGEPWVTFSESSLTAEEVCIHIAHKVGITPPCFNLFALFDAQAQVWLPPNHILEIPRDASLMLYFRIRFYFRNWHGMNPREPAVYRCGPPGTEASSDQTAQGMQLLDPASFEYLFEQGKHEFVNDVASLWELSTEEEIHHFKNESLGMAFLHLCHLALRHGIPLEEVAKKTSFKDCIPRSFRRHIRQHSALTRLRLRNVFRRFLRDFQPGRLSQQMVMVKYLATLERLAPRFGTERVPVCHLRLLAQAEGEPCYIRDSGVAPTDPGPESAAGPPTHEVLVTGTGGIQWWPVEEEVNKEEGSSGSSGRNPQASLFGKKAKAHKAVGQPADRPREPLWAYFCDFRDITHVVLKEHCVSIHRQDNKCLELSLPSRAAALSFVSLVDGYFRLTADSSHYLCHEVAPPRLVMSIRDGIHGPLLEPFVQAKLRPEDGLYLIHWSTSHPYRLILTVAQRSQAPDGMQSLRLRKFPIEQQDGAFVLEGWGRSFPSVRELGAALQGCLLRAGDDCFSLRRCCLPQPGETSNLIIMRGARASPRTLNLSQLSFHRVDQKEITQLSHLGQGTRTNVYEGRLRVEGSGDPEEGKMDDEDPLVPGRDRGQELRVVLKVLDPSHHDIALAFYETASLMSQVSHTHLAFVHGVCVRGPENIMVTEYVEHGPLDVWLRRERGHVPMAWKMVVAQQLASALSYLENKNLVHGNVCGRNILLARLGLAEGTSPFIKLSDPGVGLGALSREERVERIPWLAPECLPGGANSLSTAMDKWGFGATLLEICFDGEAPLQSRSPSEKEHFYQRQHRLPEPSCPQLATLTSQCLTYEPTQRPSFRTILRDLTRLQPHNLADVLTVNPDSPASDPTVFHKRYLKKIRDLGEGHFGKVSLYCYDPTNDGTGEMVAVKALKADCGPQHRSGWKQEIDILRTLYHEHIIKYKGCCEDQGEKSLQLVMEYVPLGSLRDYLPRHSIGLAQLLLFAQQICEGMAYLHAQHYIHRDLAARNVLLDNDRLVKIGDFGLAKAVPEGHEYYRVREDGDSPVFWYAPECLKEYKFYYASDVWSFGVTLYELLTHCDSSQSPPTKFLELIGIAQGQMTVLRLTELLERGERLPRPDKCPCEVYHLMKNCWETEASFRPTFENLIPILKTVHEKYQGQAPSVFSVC
JAK 1, sequence (P23458 whole entry): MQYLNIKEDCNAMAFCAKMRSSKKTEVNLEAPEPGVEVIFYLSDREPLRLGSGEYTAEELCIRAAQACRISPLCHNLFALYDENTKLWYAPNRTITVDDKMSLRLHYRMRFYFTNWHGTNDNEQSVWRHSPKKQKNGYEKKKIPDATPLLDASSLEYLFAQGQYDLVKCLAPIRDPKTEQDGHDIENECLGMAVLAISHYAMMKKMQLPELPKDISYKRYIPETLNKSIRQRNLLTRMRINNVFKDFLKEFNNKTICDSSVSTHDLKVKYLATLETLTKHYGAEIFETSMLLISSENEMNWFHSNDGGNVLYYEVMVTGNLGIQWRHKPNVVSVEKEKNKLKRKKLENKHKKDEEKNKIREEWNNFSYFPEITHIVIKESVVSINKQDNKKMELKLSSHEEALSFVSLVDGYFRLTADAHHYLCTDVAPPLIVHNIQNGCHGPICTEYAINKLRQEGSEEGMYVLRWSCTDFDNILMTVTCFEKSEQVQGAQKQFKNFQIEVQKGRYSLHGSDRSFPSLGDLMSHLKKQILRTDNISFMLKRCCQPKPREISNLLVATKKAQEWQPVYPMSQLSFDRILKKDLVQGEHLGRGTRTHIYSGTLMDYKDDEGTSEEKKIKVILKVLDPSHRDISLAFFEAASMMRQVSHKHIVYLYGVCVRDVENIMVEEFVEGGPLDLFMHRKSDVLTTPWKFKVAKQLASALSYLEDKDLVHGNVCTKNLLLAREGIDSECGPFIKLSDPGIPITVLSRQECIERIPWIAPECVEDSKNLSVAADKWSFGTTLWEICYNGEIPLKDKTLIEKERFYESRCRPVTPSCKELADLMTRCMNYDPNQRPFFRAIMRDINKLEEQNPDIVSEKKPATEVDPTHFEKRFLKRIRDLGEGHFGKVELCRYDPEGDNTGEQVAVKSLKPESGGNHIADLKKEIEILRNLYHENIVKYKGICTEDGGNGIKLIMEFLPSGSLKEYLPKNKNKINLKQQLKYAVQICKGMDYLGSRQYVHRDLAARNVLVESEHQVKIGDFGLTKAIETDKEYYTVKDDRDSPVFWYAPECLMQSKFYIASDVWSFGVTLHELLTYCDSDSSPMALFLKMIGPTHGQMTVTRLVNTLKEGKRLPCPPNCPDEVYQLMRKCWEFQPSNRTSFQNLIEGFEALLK
JAK 2, sequence (O60674 whole entry, canonical isoform): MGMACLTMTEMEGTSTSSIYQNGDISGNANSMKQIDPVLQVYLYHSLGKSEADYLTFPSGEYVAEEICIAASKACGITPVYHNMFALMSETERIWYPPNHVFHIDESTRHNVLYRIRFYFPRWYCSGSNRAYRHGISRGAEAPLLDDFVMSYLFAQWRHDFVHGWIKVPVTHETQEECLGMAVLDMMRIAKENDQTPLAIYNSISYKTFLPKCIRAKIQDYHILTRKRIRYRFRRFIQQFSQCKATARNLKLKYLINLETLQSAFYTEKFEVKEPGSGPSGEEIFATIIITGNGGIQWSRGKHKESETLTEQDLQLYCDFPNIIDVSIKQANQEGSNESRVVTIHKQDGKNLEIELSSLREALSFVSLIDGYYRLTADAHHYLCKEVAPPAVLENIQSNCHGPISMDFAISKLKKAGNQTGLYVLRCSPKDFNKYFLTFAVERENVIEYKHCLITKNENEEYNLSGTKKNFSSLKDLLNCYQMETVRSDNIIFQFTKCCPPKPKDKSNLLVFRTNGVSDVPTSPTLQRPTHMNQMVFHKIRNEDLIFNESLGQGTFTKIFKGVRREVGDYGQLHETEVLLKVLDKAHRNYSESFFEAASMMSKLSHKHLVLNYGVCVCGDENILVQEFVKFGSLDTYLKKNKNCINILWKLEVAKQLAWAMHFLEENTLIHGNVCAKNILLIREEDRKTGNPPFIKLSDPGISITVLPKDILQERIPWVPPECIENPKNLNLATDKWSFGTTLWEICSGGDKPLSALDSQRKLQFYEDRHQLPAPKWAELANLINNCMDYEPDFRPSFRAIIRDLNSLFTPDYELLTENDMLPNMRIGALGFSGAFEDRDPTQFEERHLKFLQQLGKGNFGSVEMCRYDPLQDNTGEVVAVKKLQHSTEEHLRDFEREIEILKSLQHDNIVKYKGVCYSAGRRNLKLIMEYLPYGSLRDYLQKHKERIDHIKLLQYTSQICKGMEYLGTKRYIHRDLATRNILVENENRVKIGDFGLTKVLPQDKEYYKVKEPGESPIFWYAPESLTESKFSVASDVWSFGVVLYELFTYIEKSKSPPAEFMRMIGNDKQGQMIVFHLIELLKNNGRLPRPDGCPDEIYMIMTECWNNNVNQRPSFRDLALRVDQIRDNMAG

| Compound | IC50 (JAK 2) | IC50 (JAK 3) | IC50 (JAK 1) | IC50 (TYK2) |
| --- | --- | --- | --- | --- |
| COc1cc(NS(C)(=O)=O)ccc1-n1nc(NC(=O)C2CCN(C)C2)c2cnc(-c3cnn4cccnc34)cc21 (racemic) [Example 42, N-(1-(2-methoxy-4-(methylsulfonamido)phenyl)-6-(pyrazolo[1,5-a]pyrimidin-3-yl)-1H-pyrazolo[4,3-c]pyridin-3-yl)-1-methylpyrrolidine-3-carboxamide] | 5.01 to 50.1 nM | 5.01 to 50.1 nM | 5.01 to 50.1 nM | 5.01 to 50.1 nM |
| COc1cc(NS(C)(=O)=O)ccc1-n1nc(C(=O)NCCCN(C)C)c2cnc(-c3cnn4cccnc34)cc21 [Example 43, N-(3-(dimethylamino)propyl)-1-(2-methoxy-4-(methylsulfonamido)phenyl)-6-(pyrazolo[1,5-a]pyrimidin-3-yl)-1H-pyrazolo[4,3-c]pyridine-3-carboxamide] | ≤ 5.01 nM | 5.01 to 50.1 nM | ≤ 5.01 nM | 5.01 to 50.1 nM |
| COc1cc(NC(=O)c2ccccc2)ccc1-n1nc(NCCN(C)C)c2cnc(-c3cnn4cccnc34)cc21 [Example 75, N-(4-(3-((2-(dimethylamino)ethyl)amino)-6-(pyrazolo[1,5-a]pyrimidin-3-yl)-1H-pyrazolo[4,3-c]pyridin-1-yl)-3-methoxyphenyl)benzamide] | 5.01 to 50.1 nM | 5.01 to 50.1 nM | 5.01 to 50.1 nM | > 50.1 nM |
| COc1cc(NS(C)(=O)=O)ccc1-n1nc(NC(=O)CN2CCN(C)CC2)c2cnc(-c3cnn4cccnc34)cc21 [Example 81, N-(1-(2-methoxy-4-(methylsulfonamido)phenyl)-6-(pyrazolo[1,5-a]pyrimidin-3-yl)-1H-pyrazolo[4,3-c]pyridin-3-yl)-2-(4-methylpiperazin-1-yl)acetamide] | ≤ 5.01 nM | ≤ 5.01 nM | ≤ 5.01 nM | 5.01 to 50.1 nM |
| COc1cc(NS(=O)(=O)C2CC2)ccc1-n1nc(NCCN2CCOCC2)c2cnc(-c3cnn4cccnc34)cc21 [Example 34, N-(3-methoxy-4-(3-((2-morpholinoethyl)amino)-6-(pyrazolo[1,5-a]pyrimidin-3-yl)-1H-pyrazolo[4,3-c]pyridin-1-yl)phenyl)cyclopropanesulfonamide] | 5.01 to 50.1 nM | 5.01 to 50.1 nM | ≤ 5.01 nM | 5.01 to 50.1 nM |
| O=S(=O)(Nc1ccc(-n2nc(NCCN3CCOCC3)c3cnc(-c4cnn5cccnc45)cc32)c(OC(F)F)c1)C1CC1 [Example 25, N-(3-(difluoromethoxy)-4-(3-((2-morpholinoethyl)amino)-6-(pyrazolo[1,5-a]pyrimidin-3-yl)-1H-pyrazolo[4,3-c]pyridin-1-yl)phenyl)cyclopropanesulfonamide] | 5.01 to 50.1 nM | ≤ 5.01 nM | 5.01 to 50.1 nM | > 50.1 nM |
| CCCS(=O)(=O)Nc1ccc(-n2nc(C(=O)NCCCN3CCOCC3)c3cnc(-c4cnn5cccnc45)cc32)c(OC)c1 [Example 47, 1-(2-methoxy-4-(propylsulfonamido)phenyl)-N-(3-morpholinopropyl)-6-(pyrazolo[1,5-a]pyrimidin-3-yl)-1H-pyrazolo[4,3-c]pyridine-3-carboxamide] | 5.01 to 50.1 nM | 5.01 to 50.1 nM | 5.01 to 50.1 nM | > 50.1 nM |
| COc1cc(NS(=O)(=O)C2CC2)ccc1-n1nc(N[C@H]2C[C@@H](N(C)C)C2)c2cnc(-c3cnn4cccnc34)cc21 [Example 78, N-(4-(3-(((1s,3s)-3-(dimethylamino)cyclobutyl)amino)-6-(pyrazolo[1,5-a]pyrimidin-3-yl)-1H-pyrazolo[4,3-c]pyridin-1-yl)-3-methoxyphenyl)cyclopropanesulfonamide] | ≤ 5.01 nM | ≤ 5.01 nM | ≤ 5.01 nM | 5.01 to 50.1 nM |

Further lines, results first:

| IC50 (JAK 2) | IC50 (JAK 3) | IC50 (JAK 1) | IC50 (TYK2) | Compound |
| --- | --- | --- | --- | --- |
| ≤ 5.01 nM | ≤ 5.01 nM | ≤ 5.01 nM | 5.01 to 50.1 nM | COc1cc(CNS(C)(=O)=O)ccc1-n1nc(C)c2cnc(-c3cnn4cccnc34)cc21 [Example 63, N-(3-methoxy-4-(3-methyl-6-(pyrazolo[1,5-a]pyrimidin-3-yl)-1H-pyrazolo[4,3-c]pyridin-1-yl)benzyl)methanesulfonamide] |
| ≤ 5.01 nM | ≤ 5.01 nM | ≤ 5.01 nM | 5.01 to 50.1 nM | COc1cc(NS(=O)(=O)C2CC2)ccc1-n1nc(C)c2cnc(-c3cnn4cccnc34)cc21 [Example 6, N-(3-methoxy-4-(3-methyl-6-(pyrazolo[1,5-a]pyrimidin-3-yl)-1H-pyrazolo[4,3-c]pyridin-1-yl)phenyl)cyclopropanesulfonamide] |
| ≤ 5.01 nM | ≤ 5.01 nM | ≤ 5.01 nM | 5.01 to 50.1 nM | COc1cc(NS(C)(=O)=O)ccc1-n1nc(NCCCN(C)C)c2cnc(-c3cnn4cccnc34)cc21 [Example 22, N-(4-(3-((3-(dimethylamino)propyl)amino)-6-(pyrazolo[1,5-a]pyrimidin-3-yl)-1H-pyrazolo[4,3-c]pyridin-1-yl)-3-methoxyphenyl)methanesulfonamide] |
| ≤ 5.01 nM | ≤ 5.01 nM | 5.01 to 50.1 nM | 5.01 to 50.1 nM | CNS(=O)(=O)c1ccc(-n2nc(NCCCN(C)C)c3cnc(-c4cnn5cccnc45)cc32)c(OC)c1 [Example 52, 4-(3-((3-(dimethylamino)propyl)amino)-6-(pyrazolo[1,5-a]pyrimidin-3-yl)-1H-pyrazolo[4,3-c]pyridin-1-yl)-3-methoxy-N-methylbenzenesulfonamide] |
| 5.01 to 50.1 nM | 5.01 to 50.1 nM | 5.01 to 50.1 nM | > 50.1 nM | COc1cc(CO)ccc1-n1nc(C)c2cnc(-c3cnn4cccnc34)cc21 [Example 66, (3-methoxy-4-(3-methyl-6-(pyrazolo[1,5-a]pyrimidin-3-yl)-1H-pyrazolo[4,3-c]pyridin-1-yl)phenyl)methanol] |
| ≤ 5.01 nM | ≤ 5.01 nM | ≤ 5.01 nM | 5.01 to 50.1 nM | CNc1nn(-c2ccc(CNS(C)(=O)=O)cc2OC)c2cc(-c3cnn4cccnc34)ncc12 [Example 55, N-(3-methoxy-4-(3-(methylamino)-6-(pyrazolo[1,5-a]pyrimidin-3-yl)-1H-pyrazolo[4,3-c]pyridin-1-yl)benzyl)methanesulfonamide] |
| ≤ 5.01 nM | 5.01 to 50.1 nM | 5.01 to 50.1 nM | 5.01 to 50.1 nM | COc1cc(CNS(C)(=O)=O)ccc1-n1nc(NCCN2CCCCC2)c2cnc(-c3cnn4cccnc34)cc21 [Example 54, N-(3-methoxy-4-(3-((2-(piperidin-1-yl)ethyl)amino)-6-(pyrazolo[1,5-a]pyrimidin-3-yl)-1H-pyrazolo[4,3-c]pyridin-1-yl)benzyl)methanesulfonamide] |
| 5.01 to 50.1 nM | 5.01 to 50.1 nM | > 50.1 nM | > 50.1 nM | COc1cc(CNC(=O)Nc2ccccc2)ccc1-n1nc(C)c2cnc(-c3cnn4cccnc34)cc21 [Example 72, 1-(3-methoxy-4-(3-methyl-6-(pyrazolo[1,5-a]pyrimidin-3-yl)-1H-pyrazolo[4,3-c]pyridin-1-yl)benzyl)-3-phenylurea] |
| ≤ 5.01 nM | ≤ 5.01 nM | ≤ 5.01 nM | > 50.1 nM | COc1cc(C(C)NS(C)(=O)=O)ccc1-n1nc(C)c2cnc(-c3cnn4cccnc34)cc21 (centres unmarked) [Example 62, N-(1-(3-methoxy-4-(3-methyl-6-(pyrazolo[1,5-a]pyrimidin-3-yl)-1H-pyrazolo[4,3-c]pyridin-1-yl)phenyl)ethyl)methanesulfonamide] |
